Test [1] concerns strain WSG1. As to the kind of experiment: Susceptibility evaluation, K-B method (zones of inhibition of antibiotics). Format: cell-based, Weissella confusa. The settings on record: antibiotic against strain WSG1, K-B method.
Test [2] has as its system strain WSG1. As to the kind of experiment: Susceptibility evaluation, MIC method. The settings on record: Weissella confusa; marbofloxacin against strain WSG1. Format: cell-based.

≈ marks a conversion by molar mass, not a printed value.

Turning to `CC1(C)S[C@@H]2[C@H](NC(=O)[C@H](N)c3ccc(O)cc3)C(=O)N2[C@H]1C(=O)O` [Amoxicillin, amoxicillin], the “Diameter of zone of inhibition” value in the test with strain WSG1 [1] came out at 15.0 mm.

As for `CC[C@H]1OC(=O)[C@H](C)[C@@H](O[C@H]2C[C@@](C)(OC)[C@@H](O)[C@H](C)O2)[C@H](C)[C@@H](O[C@@H]2O[C@H](C)C[C@H](N(C)C)[C@H]2O)[C@](C)(O)C[C@@H](C)CN(C)[C@H](C)[C@@H](O)[C@]1(C)O` [Azithromycin, azithromycin], the “Diameter of zone of inhibition” value with strain WSG1 [1] is on record as 15.5 mm.

Take `CC1=C(C(=O)O)N2C(=O)[C@@H](NC(=O)[C@H](N)c3ccccc3)[C@H]2SC1` [Cefalexin, cefalexin]: in the test on strain WSG1 [1], the “Diameter of zone of inhibition” value is 15.5 mm.

As for `Cc1nnc(SCC2=C(C(=O)O)N3C(=O)[C@@H](NC(=O)Cn4cnnn4)[C@H]3SC2)s1` [Cefazolin, cefazolin], the “Diameter of zone of inhibition” value in the test on strain WSG1 [1] was determined as 19.5 mm.

As to `CC1=C(C(=O)O)N2C(=O)[C@@H](NC(=O)[C@H](N)C3=CCC=CC3)[C@H]2SC1` [Cefradine, cefradine], the “Diameter of zone of inhibition” value with strain WSG1 [1] stood at 17.5 mm.

In the case of `CC(=O)OCC1=C(C(=O)O)N2C(=O)[C@@H](NC(=O)Cc3cccs3)[C@H]2SC1` [Cephalothin, cephalothin], the “Diameter of zone of inhibition” value in the test on strain WSG1 [1] stood at 23.5 mm.

Take `O=C(N[C@H](CO)[C@H](O)c1ccc([N+](=O)[O-])cc1)C(Cl)Cl` [Chloramphenicol, chloramphenicol]: in the test on strain WSG1 [1], the “Diameter of zone of inhibition” value was 23.5 mm.

As to `CCC[C@@H]1C[C@@H](C(=O)N[C@@H]([C@H]2O[C@H](SC)[C@H](O)[C@@H](O)[C@H]2O)[C@H](C)Cl)N(C)C1` [Clindamycin, clindamycin], the “Diameter of zone of inhibition” value with strain WSG1 [1] is listed as 23.0 mm.

For the molecule `CCN1CCN(c2cc3c(cc2F)c(=O)c(C(=O)O)cn3C2CC2)CC1` [Enrofloxacin, enrofloxacin], the “Diameter of zone of inhibition” value in the test with strain WSG1 [1] came out at 13.5 mm.

For the molecule `Cc1onc(-c2ccccc2)c1C(=O)N[C@@H]1C(=O)N2[C@@H]1SC(C)(C)[C@@H]2C(=O)O` [Oxacillin, oxacillin], the “Diameter of zone of inhibition” value with strain WSG1 [1] is recorded as 7.5 mm.

Consider `CN(C)[C@@H]1C(O)=C(C(N)=O)C(=O)[C@@]2(O)C(O)=C3C(=O)c4c(O)cccc4[C@@](C)(O)[C@H]3C[C@@H]12` [Tetracycline, tetracycline], for which the “Diameter of zone of inhibition” value in the test with strain WSG1 [1] is on record as 19.5 mm.

As to `CN[C@H](CC(C)C)C(=O)N[C@H]1C(=O)N[C@@H](CC(N)=O)C(=O)N[C@H]2C(=O)N[C@H]3C(=O)N[C@H](C(=O)N[C@H](C(=O)O)c4cc(O)cc(O)c4-c4cc3ccc4O)[C@H](O)c3ccc(c(Cl)c3)Oc3cc2cc(c3O[C@@H]2O[C@H](CO)[C@@H](O)[C@H](O)[C@H]2O[C@H]2C[C@](C)(N)[C@H](O)[C@H](C)O2)Oc2ccc(cc2Cl)[C@H]1O` [Vancomycin, vancomycin], in the test with strain WSG1 [1], the “Diameter of zone of inhibition” value is 0.0 mm.

For `CN1CCN(c2c(F)cc3c(=O)c(C(=O)O)cn4c3c2OCN4C)CC1` [marbofloxacin], the minimal inhibitory concentration (MIC) in the test on strain WSG1 [2] amounted to 1020 µg/mL (≈ 2830 µM).

For penicillin, the “Diameter of zone of inhibition” value with strain WSG1 [1] came out at 23.5 mm.
